For assay [1], the system named is Mycobacterium tuberculosis. Kind of assay: Antibacterial activity against Mycobacterium tuberculosis H172. The assay is classed as functional.
Assay [2] has as its system Staphylococcus aureus. Kind of assay: Antibacterial activity against Staphylococcus aureus ATCC 25923. The assay is classed as functional.
Assay [3] has as its system Mycobacterium tuberculosis. Kind of assay: Antibacterial activity against human Mycobacterium tuberculosis H37Rv. It is filed as functional.
In assay [4] the test system is Escherichia coli. Kind of assay: Antibacterial activity against Escherichia coli ATCC 25922. It is filed as functional.
The test system of assay [5] is Nakaseomyces glabratus. Kind of assay: Antifungal activity against Candida glabrata after 48 hr incubation. It is filed as functional.
Assay [6] relates to Candida parapsilosis. Description: Antifungal activity against Candida parapsilosis after 24 hr incubation. It is filed as functional. To be noted: Lodderomyces parapsilosis.
Assay [7] deals with Candida parapsilosis. Kind of assay: Antifungal activity against Candida parapsilosis after 48 hr incubation. It is filed as functional. Conditions: Lodderomyces parapsilosis.
Assay [8] relates to Candida albicans. Description: Antifungal activity against Candida albicans after 24 hr incubation. The assay is classed as functional.
The test system of assay [9] is Nakaseomyces glabratus. Description: Antifungal activity against Candida glabrata after 24 hr incubation. It is filed as functional.
Assay [10] relates to Candida albicans. Description: Antifungal activity against Candida albicans after 48 hr incubation. It is filed as functional.
In assay [11] the test system is Cryptococcus neoformans. Kind of assay: Antifungal activity against Cryptococcus neoformans after 24 hr incubation.
Assay [12] relates to Cryptococcus neoformans. Kind of assay: Antifungal activity against Cryptococcus neoformans after 48 hr incubation.
In assay [13] the test system is Mycobacterium tuberculosis. Description: Antibacterial activity against Mycobacterium tuberculosis H242. The assay is classed as functional.
Assay [14] concerns Mycobacterium tuberculosis. Description: Antibacterial activity against Mycobacterium tuberculosis H331. The assay is classed as functional.

In brackets after ≈: the same amount, converted by molar mass. Bounds are passed on as bounds.

As a reminder, the MIC is the lowest concentration found to suppress growth. Low readings indicate inhibition by little substance, high ones a need for much substance. As for `CCCCCCCCC/C=C/CCC[C@@H](O)[C@@H](O)[C@H](CO[C@@H]1OC(CO)[C@@H](O)C(O)C1O)NC(=O)[C@H](O)CCCCCCCCCCCCCCCCCCCCCC` (some centres undefined), the MIC in assay [1] was over 160 µg/mL; in assay [2] it was over 160 µg/mL; in assay [3], over 160 µg/mL; in [4] it was over 160 µg/mL; in [5], over 128 µg/mL; in [6], over 128 µg/mL. In addition, the MIC in assay [7] is over 128 µg/mL; in [8] it was over 128 µg/mL; in assay [9] it was over 128 µg/mL; in assay [10] it was over 128 µg/mL; in [11], 128 µg/mL (≈ 152 µM); in [12], over 128 µg/mL. Further, the MIC in [13] and in assay [14] was over 160 µg/mL throughout.
In the case of `O=C(O)c1cn(C2CC2)c2cc(N3CCNCC3)c(F)cc2c1=O` [CIPROFLOXACIN], the MIC was determined as 0.25 µg/mL (≈ 0.754 µM) in [1]; 0.5 µg/mL (≈ 1.51 µM) in [2]; 0.25 µg/mL (≈ 0.754 µM) in assay [3]; 0.125 µg/mL (≈ 0.377 µM) in assay [13]; 0.125 µg/mL (≈ 0.377 µM) in assay [14].
Turning to `CCCCCCCC/C=C/CCCCCCCCCCCCCC[C@@H](O)C(=O)N[C@@H](CO[C@@H]1OC(CO)[C@@H](O)C(O)C1O)[C@H](O)[C@H](O)CCC/C=C/CCCCCCCCC` (some centres undefined), the MIC was 40 µg/mL (≈ 46 µM) in [1]; over 160 µg/mL in [2]; 40 µg/mL (≈ 46 µM) in [3]; over 160 µg/mL in [4]; over 128 µg/mL in assay [5]; over 128 µg/mL in assay [6]. For the same compound, the MIC was over 128 µg/mL in assay [7]; over 128 µg/mL in assay [8]; over 128 µg/mL in [9]; over 128 µg/mL in assay [10]; 128 µg/mL (≈ 147 µM) in assay [11]; over 128 µg/mL in [12]. The figures for the MIC in assay [13] and in assay [14] were 80 µg/mL (≈ 91.9 µM) and 40 µg/mL (≈ 46 µM), respectively.
Consider `CCCCCCCCC/C=C/CC/C=C/[C@@H](O)[C@H](CO[C@@H]1OC(CO)[C@@H](O)C(O)C1O)NC(=O)[C@H](O)CCCCCCCCCCCCCC` (some centres undefined), for which the MIC in assay [1] was over 160 µg/mL; in assay [2] it was over 160 µg/mL; in assay [3], over 160 µg/mL; in [4] it was over 160 µg/mL; in [5], over 128 µg/mL; in assay [6] it was over 128 µg/mL. Besides, the minimum inhibitory concentration (MIC) was over 128 µg/mL in assay [7]; over 128 µg/mL in [8]; over 128 µg/mL in assay [9]; over 128 µg/mL in assay [10]; 128 µg/mL (≈ 179 µM) in assay [11]; over 128 µg/mL in assay [12]. Also, the MIC in assay [13] and in [14] was over 160 µg/mL throughout.
Regarding `CCCCCCCC/C=C/CCCCCCCCCCCC[C@@H](O)C(=O)N[C@@H](CO[C@@H]1OC(CO)[C@@H](O)C(O)C1O)[C@H](O)[C@H](O)CCC/C=C/CCCCCCCCC` (some centres undefined), the MIC is over 160 µg/mL in [1]; 160 µg/mL (≈ 190 µM) in [2]; 160 µg/mL (≈ 190 µM) in assay [3]; 160 µg/mL (≈ 190 µM) in assay [4]; over 128 µg/mL in assay [5]; over 128 µg/mL in assay [6]. The MIC was over 128 µg/mL in [7]; over 128 µg/mL in assay [8]; over 128 µg/mL in [9]; over 128 µg/mL in assay [10]; 64 µg/mL (≈ 76 µM) in [11]; over 128 µg/mL in [12]. Further, the MIC in assay [13] and in assay [14] was over 160 µg/mL each time.
Regarding `Clc1ccc(COC(Cn2ccnc2)c2ccc(Cl)cc2Cl)c(Cl)c1` (centres undefined) [MICONAZOLE], the MIC in assay [5] turned out to be 10 µg/mL (≈ 24 µM); in [6], 0.625 µg/mL (≈ 1.5 µM); in assay [7], 1.25 µg/mL (≈ 3 µM); in assay [8], 2.5 µg/mL (≈ 6.01 µM); in assay [9], 5 µg/mL (≈ 12 µM); in [10], 40 µg/mL (≈ 96.1 µM). In addition, the minimum inhibitory concentration (MIC) in assay [11] and in assay [12] was 0.156 µg/mL (≈ 0.375 µM) throughout.

(Values after ChEMBL document CHEMBL1136478, “New cerebrosides from Euphorbia peplis L.: antimicrobial activity evaluation” (2003).)
